Laboratory results from US20260199305A1, “LONG-ACTING ORAL PHARMACEUTICAL COMPRISING HYPOXIA-INDUCIBLE FACTOR PROLYL HYDROLASE INHIBITOR AND USE THEREOF” (Kind Pharmaceutical, priority 2023, published 2026).

Columns and labels:
HIF PHD-2 = target: T1, HIF PHD-2 (Homo sapiens, UniProt Q9GZT9); assay: Inhibitory effect on HIF PHD-2 (HIF-1α peptide hydroxylation, HPLC); type: biochemical; conditions: PHD2 enzyme, 30° C., 2 hours, read-out: IC50 against HIF PHD-2
T1 construct: purchased Active Motif
T1 sequence (Q9GZT9 whole entry): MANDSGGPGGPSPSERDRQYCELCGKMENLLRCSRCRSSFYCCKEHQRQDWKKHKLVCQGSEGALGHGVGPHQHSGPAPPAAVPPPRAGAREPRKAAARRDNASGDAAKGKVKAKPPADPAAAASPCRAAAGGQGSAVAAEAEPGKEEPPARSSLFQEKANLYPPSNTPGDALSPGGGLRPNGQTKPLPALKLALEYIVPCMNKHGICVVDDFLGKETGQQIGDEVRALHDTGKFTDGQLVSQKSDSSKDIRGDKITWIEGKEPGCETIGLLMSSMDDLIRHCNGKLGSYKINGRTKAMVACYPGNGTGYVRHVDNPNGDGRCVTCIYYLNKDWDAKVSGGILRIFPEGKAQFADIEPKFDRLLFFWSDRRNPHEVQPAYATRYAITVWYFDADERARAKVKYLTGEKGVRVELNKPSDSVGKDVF
Method: Stock solutions of the following reagents were prepared: HEPES buffer (pH 7.4, 50 mM), HIF-1α peptide (sequence: DLDLEMLAPYIPMDDDFQL; Genscript) solution in DMSO/HEPES (0.5 mM; preparation method: first prepare a 20 mM solution of this peptide in DMSO, then dilute it 40-fold with the HEPES buffer), ascorbic acid solution (10 mM), FeSO4 in hydrochloric acid solution (0.1 mM FeSO4, 10 μM HCl), 2-oxoglutaric acid solution (2-OG: 1 mM), EDTA solution (pH 8.0; 0.5 M), and eight concentrations of Comp-1/DMSO solutions (concentrations: 4000 μM, 1333 μM, 444.4 μM, 148.1 μM, 49.4 μM, 16.5 μM, 5.5 μM, and 1.82 μM). The following reagents were added to nine Eppendorf tubes: 50 μL HEPES solution, 10 μL ascorbic acid solution, 10 μL FeSO4 in HCl solution, 10 μL 2-OG solution, 10 μL HIF-1α peptide solution; then 5 μL of each of the eight Comp-1/DMSO solutions and 5 μL of DMSO were added separately; finally, 5 μL of PHD2 enzyme (Active Motif; concentration: 0.2 μg/μL) was added to each tube. Each of the resulting reaction systems was incubated at 30° C. in dark for 2 hours. Finally, 10 μL of EDTA solution was added to each tube to terminate the reaction. […] The concentrations of HIF-peptide and hydroxylated peptide were quantified using a UV absorption detector to calculate their ratio. The IC50 was calculated using GraphPad Prism 6.0 software.

[1] = Elimination half-life in rats after single oral gavage; type: in vivo; conditions: SD, rat, plasma
Method: Preparation of Single-Dose Oral Formulation: 25.3800 g of meglumine (Sigma) was weighed and dissolved in 80 mL of deionized water. The resulting mixture was stirred for 35 minutes and the volume was made up to 130 mL to obtain a 1M meglumine solution. 4.31 mg, 13.54 mg, and 40.59 mg of Comp-1 were weighed separately and then added to 28.676 mL, 27 mL, and 27 mL of the 1M meglumine solution respectively. The resulting mixtures each was stirred for 31 minutes and sonicated for 5 minutes to obtain colorless transparent solutions with Comp-1 concentrations of 0.15 mg/mL, 0.5 mg/mL, and 1.5 mg/mL, respectively.
18 SD rats (half male, half female) were randomly divided into 3 groups (3 males and 3 females per group). Comp-1 was administered by oral gavage at doses of 1.5, 5.0, and 15.0 mg/kg. Blood samples were collected before administration and at 0.25, 0.5, 1, 2, 4, 6, 8, 24, 48, and 72 hours after administration. The oral vehicle was a 1 M meglumine solution in deionized water, and the administration volume was 10 mL/kg for all doses. All collected plasma samples were stored at −75±15° C. until analysis. The concentration of Comp-1 in SD rat plasma was determined using liquid chromatography-tandem mass spectrometry with Tolbutamide as an internal standard. The mass spectrometer utilized an electrospray ionization source operating in positive ion mode. The precursor-to-product ion transitions monitored were m/z 381.2→306.3 for Comp-1 and m/z 270.9->155.0 for Tolbutamide. Pharmacokinetic parameters of Comp-1 were calculated by software Phoenix™ WinNonlin version 6.1 using a non-compartmental model. Pharmacokinetic data were calculated using a linear log trapezoidal method with a weighting of 1/Y*Y. Samples with concentrations below the lower limit of quantification were not included in the calculation of pharmacokinetic parameters. Microsoft Excel 2010 was used to calculate the mean values of various parameters, with the mean determined from the pharmacokinetic parameters of each animal. The mean elimination half-lives of Comp-1 in male rats at the doses of 1.5, 5.0, and 15.0 mg/kg were: 6.72 hours, 15.0 hours, and 10.2 hours, respectively. The mean elimination half-lives of Comp-1 in female rats at the doses of 1.5, 5.0, and 15.0 mg/kg were: 12.9 hours, 5.72 hours, and 24.9 hours, respectively.

Normal Rats = assay: Hemoglobin increase in normal rats, oral tiw vs qw for 4 weeks; type: in vivo, SD rats; parameters: Hemoglobin D0 / Hemoglobin D14: unit not given here; conditions: for Hemoglobin D0 / Hemoglobin D7 / Hemoglobin D14 / Hemoglobin D21 / Hemoglobin D28: oral; for Hemoglobin D0: day 0; for Hemoglobin D7: day 7; for Hemoglobin D14: day 14; for Hemoglobin D21: day 21; for Hemoglobin D28: day 28
Method: A total of 70 male SD rats, approximately 7 weeks old, were acclimated to the experimental environment for 10 days before the start of the experiment. Throughout the experiment, animals were housed in cages (5 rats per cage) in a conventional animal room with 24-hour continuous central air conditioning, temperature set at 24° C., and a 12-hour light/dark cycle. All rats had free access to food (dry pelleted food) and purified drinking water. The animals were randomly divided into 8 groups: the vehicle tiw group and vehicle qw group each contained 5 rats; Comp-1 3 mpk tiw, 6 mpk tiw, 10 mpk tiw, 9 mpk qw, 18 mpk qw, and 30 mpk qw, each contained 10 rats (mpk=mg/kg). The vehicle was 1 M aqueous meglumine solution. Each rat received oral gavage of the vehicle or the corresponding weight of Comp-1 vehicle solution according to its body weight and group assignment (tiw, qw) for a total of 4 weeks. Blood samples were collected from each rat on days 0, 7, 14, 21, and 28 to measure hemoglobin values (HGB, Hb). After tail snip blood collection, hemoglobin values were measured and read using a hemoglobin detector (HemoCue Hb 201+, produced by Radiometer). Quantitative data results were analyzed statistically using one-way analysis of variance (ANOVA) between groups, followed by Dunnett's multiple comparison method. Two-tailed analysis was used for statistics, and the statistical significance level was set at P<0.05.

Molecule `O=C(O)CNC(=O)C1=C(O)C2(CCCC2)n2c(ccc2-c2ccccc2)C1=O` [Comp-1, (6′-hydroxy-8′-oxo-3′-phenyl-8′H-spiro[cyclopentane-1,5′-indolizine]-7′-carbonyl)glycine] has an IC50 (HIF PHD-2) of 2360 nM, a half-life ([1]; female rats, 1.5 mg/kg oral gavage) of 12.9 h and a half-life ([1]; female rats, 5.0 mg/kg oral gavage) of 5.72 h. For the same molecule, the half-life ([1]; female rats, 15.0 mg/kg oral gavage) was 24.9 h, the half-life ([1]; male rats, 1.5 mg/kg oral gavage) was 6.72 h and the half-life ([1]; male rats, 5.0 mg/kg oral gavage) was 15 h. The half-life ([1]; male rats, 15.0 mg/kg oral gavage) was 10.2 h, the “Hemoglobin D0” value (Normal Rats; 3 mg/kg, tiw) was 16.42 ± 0.74 and the “Hemoglobin D7” value (Normal Rats; 3 mg/kg, tiw) was 18.32 ± 0.70. For the same molecule, the “Hemoglobin D14” value (Normal Rats; 3 mg/kg, tiw) was 19.06 ± 0.81, the “Hemoglobin D21” value (Normal Rats; 3 mg/kg, tiw) was 18.09 ± 0.57 and the “Hemoglobin D28” value (Normal Rats; 3 mg/kg, tiw) was 18.97 ± 0.56. For the same molecule, the “Hemoglobin D0” value (Normal Rats; 6 mg/kg, tiw) was 17.4 ± 1.07, the “Hemoglobin D7” value (Normal Rats; 6 mg/kg, tiw) was 18.76 ± 0.76 and the “Hemoglobin D14” value (Normal Rats; 6 mg/kg, tiw) was 20.15 ± 0.58. The “Hemoglobin D21” value (Normal Rats; 6 mg/kg, tiw) was 19.49 ± 0.82, the “Hemoglobin D28” value (Normal Rats; 6 mg/kg, tiw) was 21.26 ± 1.08 and the “Hemoglobin D0” value (Normal Rats; 9 mg/kg, qw) was 16.96 ± 0.82. The “Hemoglobin D7” value (Normal Rats; 9 mg/kg, qw) was 17.57 ± 1.07, the “Hemoglobin D14” value (Normal Rats; 9 mg/kg, qw) was 17.77 ± 2.01 and the “Hemoglobin D21” value (Normal Rats; 9 mg/kg, qw) was 17.73 ± 1.15. For the same molecule, the “Hemoglobin D28” value (Normal Rats; 9 mg/kg, qw) was 19.09 ± 1.44, the “Hemoglobin D0” value (Normal Rats; 10 mg/kg, tiw) was 17.74 ± 1.06 and the “Hemoglobin D7” value (Normal Rats; 10 mg/kg, tiw) was 19.21 ± 0.71. For the same molecule, the “Hemoglobin D14” value (Normal Rats; 10 mg/kg, tiw) was 21.83 ± 1.18, the “Hemoglobin D21” value (Normal Rats; 10 mg/kg, tiw) was 22.12 ± 1.40 and the “Hemoglobin D28” value (Normal Rats; 10 mg/kg, tiw) was 23.69 ± 1.31. The “Hemoglobin D0” value (Normal Rats; 18 mg/kg, qw) was 17.2 ± 1.00, the “Hemoglobin D7” value (Normal Rats; 18 mg/kg, qw) was 17.95 ± 0.88 and the “Hemoglobin D14” value (Normal Rats; 18 mg/kg, qw) was 18.57 ± 0.76. For the same molecule, the “Hemoglobin D21” value (Normal Rats; 18 mg/kg, qw, in g/dL) was 18.72 ± 0.92, the “Hemoglobin D28” value (Normal Rats; 18 mg/kg, qw) was 18.99 ± 1.23 and the “Hemoglobin D0” value (Normal Rats; 30 mg/kg, qw) was 17.13 ± 1.17. For the same molecule, the “Hemoglobin D7” value (Normal Rats; 30 mg/kg, qw, in g/dL) was 19.33 ± 0.56, the “Hemoglobin D14” value (Normal Rats; 30 mg/kg, qw) was 19.44 ± 1.07 and the “Hemoglobin D21” value (Normal Rats; 30 mg/kg, qw, in g/dL) was 20.04 ± 0.93. For the same molecule, the “Hemoglobin D28” value (Normal Rats; 30 mg/kg, qw, in g/dL) was 20.62 ± 0.76 and the “hemoglobin levels compared with vehicle once weekly (qw)” value (Normal Rats; day 28, the three once weekly (qw) groups) was “statistically significantly increased”.
